Data set [1] concerns C6. Put plainly: Antiproliferative activity against rat C6 cells after 48 hrs by MTT assay. Format: functional, cell-based. The conditions noted are these: C6, 48 h. (In general: Tetrazolium dyes change colour on reduction, which living cells bring about.)
The subject of a further data set is SF-295. Nature of the data set: Antiproliferative activity against human SF295 cells at 10 uM after 24 hrs by SRB assay. Format: functional, cell-based. A general note: Sulforhodamine B stains cellular protein and so reports cell mass.
Data set [2] relates to C6. Nature of the data set: Antiproliferative activity against rat C6 cells at 0.1 to 10 uM after 48 hrs by neutral red incorporation assay. Format: functional, cell-based.
The nature of data set [3]: Cytotoxicity against mouse astrocytes assessed as decrease in cell viability after 48 hrs by propidium iodide incorporation assay. Format: cell-based. To be noted: astrocyte.
Data set [4] in a line: Cytotoxicity against mouse astrocytes assessed as decrease in cell viability at 10 uM after 48 hrs by neutral red incorporation assay. Format: cell-based. The conditions noted are these: astrocyte.
The subject of a further data set is SNB-75. Put plainly: Antiproliferative activity against human SNB75 cells at 10 uM after 24 hrs by SRB assay. Format: functional, cell-based.
The nature of data set [5]: Cytotoxicity against mouse astrocytes assessed as decrease in cell viability after 48 hrs by Hoechst 33342 staining. Format: cell-based. To be noted: astrocyte.
The nature of data set [6]: Cytotoxicity against mouse astrocytes assessed as decrease in cell viability at 1 to 100 uM after 48 hrs by Hoechst 33342 staining. Format: cell-based. The conditions noted are these: astrocyte.
The nature of data set [7]: Cytotoxicity against mouse astrocytes assessed as decrease in cell viability at 1 to 100 uM after 48 hrs by propidium iodide incorporation assay. Format: cell-based. The conditions noted are these: astrocyte.
The nature of data set [8]: Cytotoxicity against mouse astrocytes assessed as decrease in cell viability at 1 to 100 uM after 48 hrs by neutral red incorporation assay. Format: cell-based. The conditions noted are these: astrocyte.
The test system of data set [9] is C6. Nature of the data set: Antiproliferative activity against rat C6 cells at 100 uM after 48 hrs by neutral red incorporation assay. Format: functional, cell-based.
Data set [10] can be described thus: Cytotoxicity against mouse astrocytes assessed as decrease in cell viability at 1 to 10 uM after 48 hrs by neutral red incorporation assay. Format: cell-based. The conditions noted are these: astrocyte.
Data set [11] is described as follows: Cytotoxicity against mouse astrocytes assessed as decrease in cell viability at 0.1 uM after 48 hrs by Hoechst 33342 staining. Format: cell-based. The conditions noted are these: astrocyte.
Data set [12] can be described thus: Cytotoxicity against mouse astrocytes assessed as decrease in cell viability at 0.1 uM after 48 hrs by neutral red incorporation assay. Format: cell-based. To be noted: astrocyte.
The nature of data set [13]: Cytotoxicity against mouse astrocytes assessed as decrease in cell viability at 0.1 uM after 48 hrs by propidium iodide incorporation assay. To be noted: astrocyte. Format: cell-based.
Data set [14] in a line: Cytotoxicity against mouse astrocytes assessed as decrease in cell viability at 1 to 10 uM after 48 hrs by propidium iodide incorporation assay. Format: cell-based. The conditions noted are these: astrocyte.

The structures appear in SMILES notation. Calls of active or inactive are those of the source. The rule behind the calls is not given here. Bounds are passed on as bounds.

What is called EC50 is the concentration giving half of the maximal effect. Lower therefore signals a more potent agent.

In the data set with C6 [1], `O=[P@@]1(c2cccc(C(F)(F)F)c2)O[C@H](COCc2ccccc2)[C@@H](OCc2ccccc2)[C@H](OCc2ccccc2)[C@@H]1O` had an EC50 greater than 25 µM.
Same read-out and setting: in the case of `O=[P@@]1(c2cccc(F)c2)O[C@H](COCc2ccccc2)[C@@H](OCc2ccccc2)[C@H](OCc2ccccc2)[C@@H]1O` it was greater than 25 µM; in that of `CSC(=S)O[C@H]1[C@@H](OCc2ccccc2)[C@H](OCc2ccccc2)[C@@H](COCc2ccccc2)O[P@@]1(=O)c1ccccc1`, greater than 25 µM.
As for `CC(=O)O[C@H]1C(=O)[C@@]2(C)[C@H]([C@H](OC(=O)c3ccccc3)[C@]3(O)C[C@H](OC(=O)[C@H](O)[C@@H](NC(=O)c4ccccc4)c4ccccc4)C(C)=C1C3(C)C)[C@]1(OC(C)=O)CO[C@@H]1C[C@@H]2O` [PACLITAXEL], the “growth inhibition (GI)” value with SF-295 and with SNB-75 was “Active” in each case. Besides, in the data set on C6 [2], the result was Active. For the same compound, the figures for the Activity entry in data set [3], in data set [4] and in data set [5] were “Dose-dependent effect”, 28% and “Dose-dependent effect”, respectively.
On to `Cc1cccc([P@]2(=O)O[C@H](COCc3ccccc3)[C@@H](OCc3ccccc3)[C@H](OCc3ccccc3)[C@H]2O)c1`, for which the concentration giving a half-maximal response (EC50) with C6 [1] was greater than 25 µM.
Still for that read-out and setting: in the case of `CC(=O)O[C@@H]1[C@@H](OCc2ccccc2)[C@H](OCc2ccccc2)[C@@H](COCc2ccccc2)O[P@@]1(=O)c1ccccc1` it was 11.9 µM; in that of `C=CCN[C@@H]1[C@@H](OCc2ccccc2)[C@H](OCc2ccccc2)[C@@H](COCc2ccccc2)O[P@@]1(=O)c1ccccc1`, 0.49 µM; in that of `O=[P@@]1(c2ccccc2)O[C@H](COCc2ccccc2)[C@@H](OCc2ccccc2)[C@H](OCc2ccccc2)[C@H]1OCc1ccccc1`, 5.3 µM.
As for `COc1ccc([P@]2(=O)O[C@H](COCc3ccccc3)[C@@H](OCc3ccccc3)[C@H](OCc3ccccc3)[C@@H]2O)cc1`, a half-maximal effect with C6 [1] (EC50) was put at 2.9 µM.
Same read-out and setting: to `O=[P@@]1(c2cccc(C(F)(F)F)c2)O[C@H](COCc2ccccc2)[C@@H](OCc2ccccc2)[C@H](OCc2ccccc2)[C@H]1O` belongs greater than 25 µM; to `O=[P@]1(c2ccccc2)O[C@H](COCc2ccccc2)[C@@H](OCc2ccccc2)[C@H](OCc2ccccc2)[C@H]1O`, 12 µM; to `COc1cccc([P@@]2(=O)O[C@H](COCc3ccccc3)[C@@H](OCc3ccccc3)[C@H](OCc3ccccc3)[C@H]2O)c1`, greater than 25 µM.
With `O=[P@]1(c2ccccc2)O[C@H](COCc2ccccc2)[C@@H](OCc2ccccc2)[C@H](OCc2ccccc2)[C@@H]1O` (single isomer, unassigned), a half-maximal response in the data set on C6 [1] (EC50) required 12 µM.
Still for that read-out and setting: to `O=[P@]1(c2cccc(F)c2)O[C@H](COCc2ccccc2)[C@@H](OCc2ccccc2)[C@H](OCc2ccccc2)[C@@H]1O` belongs greater than 25 µM.
`O=NN(CCCl)C(=O)NCCCl` [CARMUSTINE]: in the data set with C6 [2], the result was Active. The Activity result in data set [6], in [7] and in [8] was “Non-toxic” in each case.
For the compound `O=[P@]1(c2ccccc2)C[C@@H](OCc2ccccc2)[C@H](OCc2ccccc2)[C@@H](COCc2ccccc2)O1`, the half-maximal effective concentration (EC50) in the data set on C6 [1] turned out to be 8.3 µM.
In turn, `CO[C@@H]1[C@@H](OCc2ccccc2)[C@H](OCc2ccccc2)[C@@H](COCc2ccccc2)O[P@@]1(=O)c1ccccc1` had a half-maximal effective concentration (EC50) with C6 [1] of 16.6 µM.
`Cn1nnc2c(C(N)=O)ncn2c1=O` [TEMOZOLOMIDE]: the “growth inhibition (GI)” value in the data set with SF-295 and in the data set on SNB-75 was “Active” in each case. For the same compound, the Activity entry in data set [6], in [7] and in data set [8] was “Non-toxic” throughout. In the data set with C6 [9], the result was Active.
`Cc1ccc([P@@]2(=O)O[C@H](COCc3ccccc3)[C@@H](OCc3ccccc3)[C@H](OCc3ccccc3)[C@H]2O)cc1`: the concentration giving a half-maximal response (EC50) in the data set with C6 [1] is greater than 25 µM.
As to `N[C@H]1[C@@H](OCc2ccccc2)[C@H](OCc2ccccc2)[C@@H](COCc2ccccc2)O[P@@]1(=O)c1ccccc1`, the half-maximal effective concentration (EC50) with C6 [1] stood at 18.7 µM.
In the case of `O=[P@]1(c2cccc(C(F)(F)F)c2)O[C@H](COCc2ccccc2)[C@@H](OCc2ccccc2)[C@H](OCc2ccccc2)[C@@H]1O`, the concentration for a half-maximal effect (EC50) in the data set on C6 [1] was greater than 25 µM.
Same read-out and setting: in the case of `Cc1ccc([P@]2(=O)O[C@H](COCc3ccccc3)[C@@H](OCc3ccccc3)[C@H](OCc3ccccc3)[C@@H]2O)cc1` it was greater than 25 µM; in that of `O=[P@]1(c2cccc(C(F)(F)F)c2)O[C@H](COCc2ccccc2)[C@@H](OCc2ccccc2)[C@H](OCc2ccccc2)[C@H]1O`, greater than 25 µM; in that of `COc1ccc([P@]2(=O)O[C@H](COCc3ccccc3)[C@@H](OCc3ccccc3)[C@H](OCc3ccccc3)[C@H]2O)cc1`, 8.4 µM.
Still for that read-out and setting: in the case of `COc1cccc([P@@]2(=O)O[C@H](COCc3ccccc3)[C@@H](OCc3ccccc3)[C@H](OCc3ccccc3)[C@@H]2O)c1` it was greater than 25 µM; in that of `O=C(Nc1ccccc1)N[C@@H]1[C@@H](OCc2ccccc2)[C@H](OCc2ccccc2)[C@@H](COCc2ccccc2)O[P@@]1(=O)c1ccccc1`, 4.4 µM.
The same measure, in the same setting: to `Cc1ccc([P@]2(=O)O[C@H](COCc3ccccc3)[C@@H](OCc3ccccc3)[C@H](OCc3ccccc3)[C@H]2O)cc1` belongs greater than 25 µM; to `O=[P@@]1(c2ccccc2)O[C@H](COCc2ccccc2)[C@@H](OCc2ccccc2)[C@H](OCc2ccccc2)[C@H]1NCc1ccccc1`, 2.68 µM.
`COc1ccc([P@@]2(=O)O[C@H](COCc3ccccc3)[C@@H](OCc3ccccc3)[C@H](OCc3ccccc3)[C@@H]2O)cc1` returned an EC50 with C6 [1] of 15 µM.
For `COc1cccc([P@]2(=O)O[C@H](COCc3ccccc3)[C@@H](OCc3ccccc3)[C@H](OCc3ccccc3)[C@@H]2O)c1`, in the data set on C6 [1], the concentration giving a half-maximal response (EC50) is greater than 25 µM.
On the same count and under the same terms, to `N[C@@H]1[C@@H](OCc2ccccc2)[C@H](OCc2ccccc2)[C@@H](COCc2ccccc2)O[P@@]1(=O)c1ccccc1` belongs 16.3 µM; to `O=C(O[C@@H]1[C@@H](OCc2ccccc2)[C@H](OCc2ccccc2)[C@@H](COCc2ccccc2)O[P@@]1(=O)c1ccccc1)c1ccccc1`, greater than 25 µM.
In the data set on C6 [1], `COc1cccc([P@]2(=O)O[C@H](COCc3ccccc3)[C@@H](OCc3ccccc3)[C@H](OCc3ccccc3)[C@H]2O)c1` yielded a 50% effective concentration (EC50) greater than 25 µM.
The same measure, in the same setting: in the case of `Cc1cccc([P@@]2(=O)O[C@H](COCc3ccccc3)[C@@H](OCc3ccccc3)[C@H](OCc3ccccc3)[C@H]2O)c1` it was greater than 25 µM.
On the same count and under the same terms, in the case of `O=[P@]1(c2cccc(F)c2)O[C@H](COCc2ccccc2)[C@@H](OCc2ccccc2)[C@H](OCc2ccccc2)[C@H]1O` it was greater than 25 µM.
The same measure, in the same setting: in the case of `[N-]=[N+]=N[C@H]1[C@@H](OCc2ccccc2)[C@H](OCc2ccccc2)[C@@H](COCc2ccccc2)O[P@@]1(=O)c1ccccc1` it was greater than 25 µM; in that of `O=[P@@]1(c2cccc(F)c2)O[C@H](COCc2ccccc2)[C@@H](OCc2ccccc2)[C@H](OCc2ccccc2)[C@H]1O`, greater than 25 µM; in that of `Cc1cccc([P@@]2(=O)O[C@H](COCc3ccccc3)[C@@H](OCc3ccccc3)[C@H](OCc3ccccc3)[C@@H]2O)c1`, greater than 25 µM.
For `O=C(O[C@@H]1[C@@H](OCc2ccccc2)[C@H](OCc2ccccc2)[C@@H](COCc2ccccc2)O[P@@]1(=O)c1ccccc1)C(F)(F)F`, in the data set with C6 [1], the EC50 is greater than 25 µM.
On the same count and under the same terms, in the case of `Cc1cccc([P@]2(=O)O[C@H](COCc3ccccc3)[C@@H](OCc3ccccc3)[C@H](OCc3ccccc3)[C@@H]2O)c1` it was greater than 25 µM; in that of `COc1ccc([P@@]2(=O)O[C@H](COCc3ccccc3)[C@@H](OCc3ccccc3)[C@H](OCc3ccccc3)[C@H]2O)cc1`, 15 µM.
The same measure, in the same setting: to `[N-]=[N+]=N[C@@H]1[C@@H](OCc2ccccc2)[C@H](OCc2ccccc2)[C@@H](COCc2ccccc2)O[P@@]1(=O)c1ccccc1` belongs 16.7 µM; to `Cc1ccc([P@@]2(=O)O[C@H](COCc3ccccc3)[C@@H](OCc3ccccc3)[C@H](OCc3ccccc3)[C@@H]2O)cc1`, greater than 25 µM.
`CSC(=S)O[C@@H]1[C@@H](OCc2ccccc2)[C@H](OCc2ccccc2)[C@@H](COCc2ccccc2)O[P@@]1(=O)c1ccccc1` showed an EC50 in the data set on C6 [1] of 14 µM.
On to `CC[C@]1(O)C[C@H]2CN(CCc3c([nH]c4ccccc34)[C@@](C(=O)OC)(c3cc4c(cc3OC)N(C=O)[C@H]3[C@@](O)(C(=O)OC)[C@H](OC(C)=O)[C@]5(CC)C=CCN6CC[C@]43[C@@H]65)C2)C1` [VINCRISTINE], for which the Activity in data set [10] was 60%; in data set [11], “Toxic”; in data set [12] it was “Toxic”; in data set [13], “Toxic”; in data set [14], “Toxic”. In the data set on C6 [2], the result was Active.

The values above are taken from ChEMBL document CHEMBL2029220, “Oxaphosphinanes: new therapeutic perspectives for glioblastoma” (J Med Chem, 2012).
